Values quoted from earlier work in US10925925B2, “Therapy of atherosclerosis, primary biliary cirrhosis and NRLP3 inflammasome-associated disease by HTCP inhibitors” (MYR GmbH, priority 2017, dated 2021).
Where two headings read alike, the source gives them in different places.

What was measured:
patients with PBC [1] = details: month 12, placebo arm 10%
patients with PBC [2] = details: PBC patients treated with UDCA

SMILES	patients achieving the primary endpoint (predominantly reduction in ALP) (patients with PBC [1]; OCA 10 mg arm) [%]	patients achieving the primary endpoint (predominantly reduction in ALP) (patients with PBC [1]; OCA titration arm) [%]	patients who do not achieve adequate biochemical response (patients with PBC [2])
CC[C@H]1[C@@H](O)[C@@H]2[C@H](CC[C@]3(C)[C@@H]([C@H](C)CCC(=O)O)CC[C@@H]23)[C@@]2(C)CC[C@@H](O)C[C@@H]12 [OCA, obeticholic acide]	47	46	
C[C@H](CCC(=O)O)[C@H]1CC[C@H]2[C@@H]3[C@@H](O)C[C@@H]4C[C@H](O)CC[C@]4(C)[C@H]3CC[C@]12C [UDCA, ursodeoxicholic acid]			about 40%
